Measured values reported in patent US20180050090A1, “COMPOSITIONS AND METHODS FOR SENSITIZING CELLS TO TRAIL-INDUCED APOPTOSIS” (THE JOHNS HOPKINS UNIVERSITY, priority 2008, published 2018).
Where two headings read alike, the source gives them in different places.

How the values were obtained:
HT-29 cells [1] = experiment: HT-29 cell death (MTT) with DNA damaging agents, alone or with […]; assay type: cell-based, human; conditions: for apoptosis as relative cell death, low doses: 0.5 μg/mL DOX, CIS, 1 μg/mL 5-Fu, 0.6 μg/mL IRINO, 24 h pretreatment then 24 h drug alone or with TRAILPEG 1 μg/mL; for TRAIL-induced apoptosis, sub-lethal dose combined with TRAILPEG versus drug alone: DOX 2, 5-FU 10, CIS 2, IRINO 3 μg/mL
Procedure: A total of 1×10^4 cells were plated in 0.1 mL in 96-well flat bottom plates and incubated for 24 h before being exposed to various stimuli. After incubation for the indicated times, […] MTT solution was added to each well and incubated for 1 h. After removal of the medium, 200 μL of DMSO was added to each well to dissolve the formazan crystals. The absorbance at 540 nm was determined using a microplate reader (Bio-Tek Instruments, Inc, Winooski, Vt.). Triplicate wells were assayed for each condition.

DR4 [2] = conditions: HT-29 cells, DOX 2 μg/mL
From the text: (§3) Anti-caspase-8 (Cell Signaling Technology, Danvers, Mass., #9746), anti-cleaved PARP-1 (Cell Signaling Technology, #5625), anti-cleaved caspase-3 (Cell Signaling Technology, #9664), anti-cleaved caspase-9 (Cell Signaling Technology, #7237), anti-CD44 (Cell Signaling Technology, #5640), anti-p-JNK (Cell Signaling Technology, #4668), anti-p-p53 (Ser15 Cell Signaling Technology, #9284), anti-BCl-2 (Cell Signaling Technology, #2870), anti-p-BCL-2 (Cell Signaling Technology, #2875), anti-BCL-XL (Cell Signaling Technology, #2764), anti-DR4 (Abcam, Cambridge, Mass., #13890), anti-DR5 (Abcam, #47179), anti-c-Jun (Santa Cruz Biotechnology, Santa Cruz, Calif., sc-1694), or anti-β-actin (sc-47778) were used in the Western blot analysis. In generally, cells were lysed and sonicated briefly in ice-cold PBS buffer (1 mM PMSF, and 1 μg/ml each of aprotinin, leupeptin, and pepstatin A). Cell lysates were clarified by centrifugation, resolved by SDS-PAGE, and proteins on gels were transferred to nitrocellulose (Bio-Rad, Hercules, Calif.) using a semidry blotter (Bio-Rad). The membrane was blocked with 3% BSA in TBST (10 mM Tris-Cl, pH 8.0, 150 mM NaCl, 0.05% Tween-20) and incubated overnight at 4° C. with primary antibodies. Immunoblots were visualized by an enhanced chemiluminescence method.

[3] = test system: HT-29, MDA-MB-231, A549, PC3 cells; experiment: Cleaved PARP-1 western blot in TRAIL-resistant tumor cell lines; assay type: cell-based, human; conditions: HT-29, MDA-MB-231, A549, PC3 (and HCT116 for the combination)
From the text: as §3

[4] = DOX distribution in HT-29 xenograft tumors; assay type: in vivo, mice; conditions: HT-29 xenografts, single i.v. 7 mg/kg DOX-based
Procedure: Mice bearing HT-29 xenograft tumors were intravenously administered with DOX (7 mg/kg) and HAC/DOX (containing 7 mg/kg equivalent doxorubicin) when tumors reached 300 mm^3. At each selected time point, 3 mice in one group were euthanized by cervical dislocation. Whole blood was collected via cardiac puncture with a heparinized syringe. Tumors were dissected out and frozen at −70° C. immediately. Plasma samples were isolated from whole blood by centrifugation at 3000 g for 5 min. Tissues homogenates were prepared in 800 μL water using a Polytron homogenizer (Brinkman Instruments, Mississauga, Ontario, Canada), and then 200 μL of H2SO4 was added to the tissue homogenates. The solutions were then digested for 2 h at 60° C. After the vials cooled to room temperature, 100 μL of AgNO3 was added. Then the samples were centrifuged at 12,000 g for 10 min, and the supernatant was counted in a fluorospectrometer (RF-5301, Shimadzu) at an excitation wavelength of 500 nm and emission wavelength of 558 nm. The concentration of doxorubicin in each tissue was calculated based on a calibration curve. The calibration curve was linear over the 0.02 and 2.00 μg/mL range with a correlation coefficient of R^2=0.9993.

DR5 [5] = experiment: Western blot of DR5 protein in HT-29 cells; assay type: cell-based, human; conditions: DOX 2 μg/mL, regardless of TRAILPEG
From the text: (§1) Immunoblots were visualized by an enhanced chemiluminescence method.

Casp-8, Casp-3 = experiment: Western blot of cleaved caspases in HT-29 tumors in vivo; design: species or system mice; conditions: followed by TRAILPEG, HT-29 xenografts
From the text: as §1

HT-29 cells [6] = experiment: Western blotting of apoptosis markers in HT-29 cells; assay type: cell-based, human; conditions: western blot
From the text: as §1

DR5 [7] = conditions: HT-29 cells, DOX 24 h, qPCR
Procedure: (§2) Total cellular RNA was purified from HT-29 cells using Trizol reagent (Life Technology) and subjected to amplification with SuperScript One-Step RT-PCR system (Life Technology). Real-time PCR was carried out using a StepOne™ Real-Time PCR System according to the manufacturer instructions (Life Technology). The mean cycle threshold value (Ct) from triplicate samples was used to calculate the gene expression. β-actin was used as an internal control to normalize the variability in expression.

DR4 [8] = conditions: HT-29 cells, DOX 24 h, qPCR
Procedure: as §2

[9] = Survival of HT-29 xenograft mice during treatment; assay type: in vivo, BALB/c athymic mice; conditions: high dose 7 mg/kg free DOX (with TRAILPEG), HT-29 xenografts
Procedure: The antitumor effects of […] after HAC/DOX sensitizing were investigated in HT-29 tumor bearing mice (n=5). Briefly, freshly harvested HT-29 cells (5×10^6 cells/mouse) were inoculated s.c. into BALB/c athymic mice. Treatment was initiated when the tumors reached a mean volume of 150 mm^3. Mice were treated with three rounds of DOX or HAC/DOX (7 mg/kg, i.v.) combined with […] (8 mg/kg, i.v.) for 10 days. The tumors were analyzed and calculated as described above. (n=5).

[10] = rodents; cited from earlier work
[11] = humans; cited from earlier work

Oc1c2ccccc2c2c3c(cccc13)N=N2 [SP600125]
reduction of DOX and TRAILPEG-induced cell death (HT-29 cells [1]; SP600125 20 μM pre-treatment): 35%

CCc1c2c(nc3ccc(OC(=O)N4CCC(N5CCCCC5)CC4)cc13)-c1cc3c(c(=O)n1C2)COC(=O)[C@]3(O)CC [IRINO, irinotecan]
apoptosis as relative cell death, low doses (HT-29 cells [1]): did not induce apoptosis | TRAIL-induced apoptosis, sub-lethal dose combined with TRAILPEG versus drug alone (HT-29 cells [1]): enhanced TRAIL-induced apoptosis was observed

COc1cccc2c1C(=O)c1c(O)c3c(c(O)c1C2=O)C[C@@](O)(C(=O)CO)C[C@@H]3O[C@H]1C[C@H](N)[C@H](O)[C@H](C)O1 [DOX, doxorubicin]
upregulation of DR4 expression at the protein level (DR4 [2]): not DR4 | cleaved PARP-1 expression [3]: induced low levels of cleaved PARP-1 | DOX concentration in tumor over time [4]: gradually decreased with time | apoptosis as relative cell death, low doses (HT-29 cells [1]): did not induce apoptosis | TRAIL-induced apoptosis, sub-lethal dose combined with TRAILPEG versus drug alone (HT-29 cells [1]): enhanced TRAIL-induced apoptosis was observed | upregulation of DR5 expression at the protein level (DR5 [5]): 3 to 4 fold | Casp-3 activation vs. control (Casp-8, Casp-3; high dose 7 mg/kg DOX-based): 2 fold | Casp-3 activation vs. control (Casp-8, Casp-3; low dose 2 mg/kg DOX-based): 2 fold | phosphorylation of p53 and activation of c-jun (HT-29 cells [6]): led to the phosphorylation of p53 and the activation of c-jun | increase of DR5 mRNA compared to untreated cells (DR5 [7]): 60% | DR4 mRNA levels (DR4 [8]): did not change | mice died during the treatment cycle [9]: 60%

rhTRAIL: recombinant human tumor necrosis factor (TNF)-related apoptosis inducing ligand
half-life in physiological conditions [10]: 3-5 min | half-life in physiological conditions [11]: less than 30 minutes

O=c1[nH]cc(F)c(=O)[nH]1 [5-FU, 5-fluorouracil]
apoptosis as relative cell death, low doses (HT-29 cells [1]): did not induce apoptosis | TRAIL-induced apoptosis, sub-lethal dose combined with TRAILPEG versus drug alone (HT-29 cells [1]): enhanced TRAIL-induced apoptosis was observed
